Residues, ends and D or L forms follow the SMILES beside them. *: point of attachment. Cbz = O=C(OCc1ccccc1)*
Tests used:
[1] = test system: TMK1 cells
[2] = test system: Smad1/5, Smad2/3, cyclin E2; test: Western blot of Smad/BMP signaling proteins in TMK1 cells; type: cell-based, human; settings: MG-132, 4 h (1 μmol/L in FIG. 6)
[3] = test system: Smad6, Smad7, p21Waf1/Cip1, p15Ink4a, p27Kip1, BMP ligands; test: RT-PCR / real-time PCR mRNA expression in TMK1 cells; type: cell-based, human; settings: MG-132, 4 h (1 μmol/L in FIG. 6)
[4] = test system: AGS and TMK1 cells; settings: all LL-37 treatment groups
Protocol: Cell culture and viability assay—The human gastric adenocarcinoma cell line AGS was purchased from American Type Culture Collection (Manassas, Va., USA). The gastric adenocarcinoma cell TMK1 was obtained from Dr. Eiichi Tahara (University of Hiroshima, Hiroshima, Japan). AGS and TMK1 cells were maintained in RPMI 1640 (Invitrogen) containing 10% fetal bovine serum (Invitrogen), 100 U/mL penicillin G, 100 μg/mL streptomycin, and maintained at 37° C., 95% humidity, and 5% carbon dioxide. Cell viability was determined by lactate dehydrogenase release assay (Roche, Indianapolis, Ind., USA).

[5] = test system: AGS cells; settings: LL-37 20 μg/ml, 24 h
[6] = test system: dextran sodium sulfate-induced ulcerative colitis; test: DSS-induced ulcerative colitis, oral bacteria given during 7 days of DSS; type: in vivo, Balb/c mice; settings: 600 mg/kg orally once daily
Protocol: Male Balb/c mice 6-8 weeks old were used in the following experiments. They were allowed free access to standard laboratory chow and tap water. All animals were housed in an air-conditioned room with controlled temperature (22° C.±1° C.), humidity (65%-70%), and day/night cycle (12:12-hr light: dark). Mice were induced with acute colitis by giving 3% dextran sulfate sodium (DSS, molecular weight, 35-50 kDa) prepared in drinking water for 7 days (from Day 0 to Day 7). Normal control mice received tap water throughout the experiment. […] In a different group of transformed NZ3900, 0.25 ng/ml nisin was added and further incubated for 3 h. Bacteria were then harvested by centrifugation (5000 rpm, 15 min) and washed twice with sterilized PBS (pH 7.4) and resuspended in sterilized water to give 2×10^10 cfu/ml. Mice were given intragastrically (i.g.) with 0.5 ml (1×10^10 cfu) bacteria once daily at the beginning of the DSS feeding. Animals were sacrificed at the end of 7 days DSS drinking and bacteria feeding. Colonic myeloperoxidase (MPO) was measured as described previously (Guo X, et al. Gastroenterology 117, 884-892 (1999)). In brief, colon tissues were homogenized in an ice-cold […] PBS (pH 6.0) solution with 0.5% hexa-decyl-trimethyl-ammonium bromide. The homogenate was freeze-thawed three times, followed by repeated sonication for 60 seconds each and centrifugation for 20 minutes at 14,000 revolutions per minutes at 4° C. The activity of the supernatant was determined spectrophotometrically at 450 nm. The final value was expressed as enzyme units per mg of protein. Crypt loss is a histological finding in colitis. Therefore, histological analysis of mice administered with formulations per FIG. 16. The crypts were graded on a 4 grade scale as follows: Grade 0: intact crypt; Grade 1: loss of the basal ⅓ of the crypt; Grade 2: loss of the basal ⅔ of the crypt; Grade 3: loss of entire crypt with surface epithelium remaining intact; Grade 4: loss of both the entire crypt and surface epithelium.

## C=C1/C(=C\C=C2/CCC[C@]3(C)[C@@H]([C@H](C)CCCC(C)(C)O)CC[C@@H]23)C[C@@H](O)C[C@@H]1O [1α,25-dihydroxylvitamin D3]
[1]; 1 μmol/L VD3 for 24 h, read 48 h post-treatment
  TMK1 cell proliferation on induction of endogenous LL-37: inhibited cell proliferation

## CC(C)C[C@@H](C=O)NC(=O)[C@H](CC(C)C)NC(=O)[C@H](CC(C)C)NC(=O)OCc1ccccc1 [MG-132] (Cbz-Leu-Leu-Leu-aldehyde)
[2]
  Smad1/5 phosphorylation: dose-dependently increased
[3]
  BMP4 mRNA expression: dose-dependently increased

## CC[C@H](C)[C@H](NC(=O)[C@H](CCCCN)NC(=O)[C@H](CCC(=O)O)NC(=O)[C@H](CCCCN)NC(=O)[C@H](CO)NC(=O)[C@H](CCCCN)NC(=O)[C@H](CCCNC(=N)N)NC(=O)[C@H](Cc1ccccc1)NC(=O)[C@H](Cc1ccccc1)NC(=O)[C@H](CC(=O)O)NC(=O)CNC(=O)[C@H](CC(C)C)NC(=O)[C@@H](N)CC(C)C)C(=O)NCC(=O)N[C@@H](CCCCN)C(=O)N[C@@H](CCC(=O)O)C(=O)N[C@@H](Cc1ccccc1)C(=O)N[C@@H](CCCCN)C(=O)N[C@@H](CCCNC(=N)N)C(=O)N[C@H](C(=O)N[C@H](C(=O)N[C@@H](CCC(N)=O)C(=O)N[C@@H](CCCNC(=N)N)C(=O)N[C@H](C(=O)N[C@@H](CCCCN)C(=O)N[C@@H](CC(=O)O)C(=O)N[C@@H](Cc1ccccc1)C(=O)N[C@@H](CC(C)C)C(=O)N[C@@H](CCCNC(=N)N)C(=O)N[C@@H](CC(N)=O)C(=O)N[C@@H](CC(C)C)C(=O)N[C@H](C(=O)N1CCC[C@H]1C(=O)N[C@@H](CCCNC(=N)N)C(=O)N[C@H](C(=O)N[C@@H](CCC(=O)O)C(=O)N[C@@H](CO)C(=O)O)[C@@H](C)O)C(C)C)[C@@H](C)CC)C(C)C)[C@@H](C)CC [LL-37]
[4]
  cell viability (lactate dehydrogenase release): unaffected
[1]; LL-37 20 μg/ml, 24 h
  inhibition of TMK1 cell proliferation ([3H]thymidine incorporation): about 60%
[5]
  inhibition of AGS cell proliferation ([3H]thymidine incorporation): 10%

## O=C(O)c1cc(/N=N/c2ccc(S(=O)(=O)Nc3ccccn3)cc2)ccc1O [Sulfasalazine, sulfasalazine]
[6]
  MPO activity: did not affect
  mucus level: did not affect
  number of apoptotic cells in the colonic mucosa: did not affect
  number of microorganisms in the colon: did not affect

Reference: US20100310514A1, “Anti-Inflammatory Bacteria” (priority 2009, published 2010)
